Experimental data reported in US5552267A, “Solution for prolonged organ preservation” (priority 1994, dated 1996).

How the values were obtained:
heart = test: heterotopic rat cardiac transplant, nitric oxide series, graft survival/score; format: in vivo, rat (male Sprague-Dawley); conditions: for graft survival: NTG 0.1 mg/ml where added
Description: Male Sprague-Dawley rats (350 grams, Camm Research, Wayne, N.J.) were used, and harvest, preservation, and transplantation procedures performed as described^8. Preservation solutions included lactated Ringer's (LR) solution (Baxter, Edison, N.J.), or LR supplemented with nitroglycerin (DuPont, Wilmington, Del.), sodium nitroprusside (Roche Laboratories, Nutley, N.J.), N^G -monomethyl-L-arginine (L-NMMA; Chembiochem, Salt Lake City, Utah), L-arginine (Sigma Chemical Co., St. Louis, Mo.), or 8-bromoguanosine3',5'monophosphate (8-Br-cGMP; Sigma). Components were combined within 4 hrs of donor cardiectomy, and preservation solutions were kept at 4° C. All of these solutions were at the pH of LR (6.6). University of Wisconsin solution (UW) was purchased from Dupont. […] Ten minutes after removal of the cross-clamp, an electrocardiogram was taken (Grass Polygraph, Quincy, Mass.) and the heart was judged by the same blinded investigators throughout based on the presence/absence of regular contractions and a transplant score (0-5, worst-best, respectively) employing the following criteria: contraction (poor=0, average=1, vigorous=2), tissue turgor (hard=0, average=1, soft=2), and color (dusky=0, pink=1).
Graft survival data was analyzed by contingency analysis (chi-square). Transplant scores, microsphere perfusion, myeloperoxidase, NO synthase, and platelet serotonin release data were analyzed using ANOVA for unpaired variables with the Tukey test used to discriminate significant differences between group means. Values are expressed as means ±SEM, with a p<0.05 considered statistically significant.

[1] = test system: cardiac graft vasculature; test: perfusion of donor grafts by microspheres, nitric oxide series; format: in vivo, rat; conditions: 12 h preservation in LR
Description: Ten minutes after restoration of blood flow, 0.5 ml of 10 μm diameter microspheres (10^6 /ml) (E-Z Trac, Los Angeles, Calif.) was injected into the donor aortic root. Deposition of microspheres in ventricular tissue was assessed following alkaline hydrolysis, washing, and counting of microspheres as described^8, with results expressed as number of spheres per (40×) field per gram of ventricle. A minimum of ten fields were counted and the mean ±SEM is reported.

[2] = test system: nitric oxide production in heart; test: direct measurement of coronary vascular and endocardial NO with porphyrinic microsensor; design: species or system rat; conditions: transplanted hearts
Description: Direct measurement of coronary vascular and endocardial nitric oxide synthesis were made with a porphyrinic microsensor^13 using differential pulse voltammetry or amperometry. Rat hearts were explanted and preserved as described above, and studied fresh (no preservation/transplantation) or after hypothermic preservation in lactated Ringer's (LR) solution, heterotopic transplantation, and 10 minutes of reperfusion. The coronary vasculature was flushed free of blood with LR followed by 4 ml of LR supplemented with L-Arg (2 mM) and bradykinin ([…], Sigma), which was recycled (1 ml/min) through the coronary vasculature by flushing down the cross-clamped aortic root. Aliquots of perfusate were immediately transferred to an anaerobic environment for measurements and compared to an aqueous nitric oxide reference. Differential pulse voltammograms were obtained using a sensor (working electrode), saturated calomel electrode reference, and platinum wire-auxiliary electrode, with a pulse amplitude of 40 mV. Endocardial NO was measured by implanting the sensor in the septal endocardium of a freshly explanted or preserved/transplanted heart, and after the baseline stabilization, […] bradykinin was applied and NO release continuously monitored by amperometry at constant potential of 0.63 V.

nitric oxide synthase = test: cardiac nitric oxide synthase activity (L-arginine to L-citrulline conversion); format: biochemical, rat; conditions: LR with vs without supplement, 12 h
Description: Hearts were either freshly explanted, preserved, or preserved/transplanted (with 10 min. of reperfusion), after which they were excised. The coronary arteries were flushed with physiologic saline, the atria and great vessels excised, and the ventricular cavities rinsed free of residual intracavitary blood. Samples were flash-frozen in liquid nitrogen and stored at -80° C. until the time of assay. Extracts were prepared by homogenizing tissue at 4° C. in the presence of protease inhibitors (aprotinin, epsilon amino caproic acid, PMSF, pepstatin A, and chymostatin), and centrifuging (20,000 rpm×20 min) to remove cellular debris. The extract (20 μg of protein by the method of Lowry^15) was incubated for 60 min. in the presence of CaCl2 (10 μM), FAD (8 μM), dithiothreitol (60 μM)(Sigma), tetrahydrobiopterin (8 μM; B. Schirks, Switzerland), and ^3 H-L-arginine (0.072 μM, 5 μCi;, Amersham, Arlington Heights, Ill.). Thin layer chromatography (TLC) was performed with 5 μl of the reaction mix, using methanol:chloroform:water:ammonium hydroxide (9:2:8:3) as the running solvent. Silica gel TLC plates (Sigma) were stained with ninhydrin (1 g/500 ml ethanol) and the spots corresponding to L-arginine, L-ornithine, and L-citrulline cut out and counted. […] Results are expressed as the mean ±SEM of 3 determinations.

[3] = test system: cGMP-dependent protein kinase; conditions: vs cAMP-dependent protein kinase; cited from earlier work
[4] = test system: neutrophil infiltration of cardiac graft; test: graft myeloperoxidase activity/histology, nitric oxide series; format: in vivo, rat; conditions: 12 h; NTG 0.1 mg/ml in LR
Description: Ten minutes following restoration of blood flow, transplanted hearts were excised and the aortic root was flushed for 5 minutes (rate of 2 ml/minute controlled by roller pump) with normal saline (Baxter, Edison, N.J.), the atria and great vessels were removed, and intracavitary blood was evacuated. Remaining ventricular pieces were weighed, homogenized, and myeloperoxidase activity measured as described^10. For histologic study, cardiac graft samples were fixed in an ascending series of aldehydes, embedded, sectioned, and stained with hematoxylin and eosin.

[5] = test system: neutrophil accumulation in lung graft; test: lung graft myeloperoxidase, nitroglycerin series; format: in vivo, rat; conditions: NTG 0.1 mg/mL in EC, 6 h
Description: Thirty minutes following ligation of the native right pulmonary artery, or at the time of recipient death, transplanted lungs were removed, rinsed briskly in physiologic saline, and snap frozen in liquid nitrogen until the time of myeloperoxidase or TBARs assay.
Tissue was homogenized in phosphate buffer (50 mM, pH 5.5, 5 ml/gm of tissue) containing hexadecyltrimethyl ammonium bromide (0.5%, Sigma). The assay was performed, as previously described^35, by thawing the sample, centrifuging at 40,000 g for 15 minutes, and decanting the supernatant, which was assayed for myeloperoxidase activity using a standard chromogenic spectrophotometric technique in which test sample (0.03 mL) was added to phosphate buffer (0.97 mL) containing O-dianisidinedihydrochloride (Sigma) and hydrogen peroxide (0.0005%), and change in absorbance at 460 nm was measured over 1 minute (increase in OD was linear over this time interval).

cGMP = test: tissue cGMP levels (radioimmunoassay, unpublished); conditions: NTG in preservation solution
[6] = test system: nitric oxide in expired air; conditions: in vivo; cited from earlier work

SMILES | concentration of maximal benefit (heart; 8-Br-cGMP dose-response, 12 h in LR) | effect on graft preservation (words) (heart; 12 h in LR) | effect on graft preservation (words) (heart; 12 h in LR, listed as 8-bromo-cGMP) | graft blood flow [1] | effect on NO levels [2] | nitric oxide synthase activity after transplantation (nitric oxide synthase) | times more potent at stimulating cGMP- than cAMP-dependent protein kinase [3] | graft survival (heart; 24-28 h in UW) | graft survival (heart; 12 h in LR) | concentration of maximal effect (heart; NTG dose-response, 12 h in LR) | neutrophil infiltration [4] | graft neutrophil accumulation [5] | tissue cGMP levels (cGMP) | nitric oxide in expired air [6]
Nc1nc2c(nc(Br)n2[C@@H]2O[C@@H]3COP(=O)(O)O[C@H]3[C@H]2O)c(=O)[nH]1 [8-Br-cGMP, 8-bromoguanosine-3'5' cyclic monophosphate] | 0.5 mM | enhanced cardiac preservation in a dose-dependent manner | enhanced graft survival | enhanced blood flow | did not alter NO levels | similar | 500 times |  |  |  |  |  |  | 
O=[N+]([O-])OCC(CO[N+](=O)[O-])O[N+](=O)[O-] [NTG, nitroglycerin] |  |  |  | enhanced blood flow |  | similar |  | 100% | 92% | 0.1 mg/mL | marked decrease in neutrophil infiltration | significant decline in both neutrophil and platelet accumulation | augments tissue cGMP levels | increase nitric oxide in expired air
